Laboratory results as given in US20170198006A1, “PRMT5 INHIBITORS AND USES THEREOF” (Epizyme, Inc., priority 2014, published 2017).
pIC50: −log10 of the molar value. Like-named read-outs stand apart in the source and are kept apart here.

Target: T1, PRMT5/MEP50 (Homo sapiens, UniProt O14744)
T1 construct: Flag-PRMT5; made in house; host or cells: Spodoptera frugiperda (SF9), baculovirus
Experiment: PRMT5 Biochemical Assay (PRMT5/MEP50 enzyme assay on histone H4 peptide substrate, 3H-SAM Flashplate)
Description: S-adenosylmethionine (SAM), S-adenosylhomocysteine (SAH), bicine, KCl, Tween20, dimethylsulfoxide (DMSO), bovine skin gelatin (BSG), and Tris(2-carboxyethyl)phosphine hydrochloride solution (TCEP) were purchased from Sigma-Aldrich at the highest level of purity possible. ^3H-SAM was purchase from American Radiolabeled Chemicals with a specific activity of 80 Ci/mmol. 384-well streptavidin Flashplates were purchased from PerkinElmer.
Peptide representative of human histone H4 residues 1-15 was synthesized with a C-terminal linker-affinity tag motif and a C-terminal amide cap by 21st Century Biochemicals.
The amplified genes were sublconed into pENTR/D/TEV (Life Technologies) and subsequently transferred by Gateway™ attL×attR recombination to pDEST8 baculvirus expression vector (Life Technologies).
Protein over-expression was accomplished by infecting exponentially growing Spodoptera frugiperda (SF9) cell culture at 1.2×10^6 cell/ml with a 5000 fold dilution of BIIC stock. Infections were carried out at 27° C. for 72 hours, harvested by centrifugation, and stored at −80° C. for purification.
Flag-PRMT5/6His-MeP50 was eluted with 300 mM Imidazole in the same buffer.
General Procedure for PRMT5/MEP50 Enzyme Assays on Peptide Substrates.
The assays were all performed in a buffer consisting of 20 mM Bicine (pH=7.6), 1 mM TCEP, 0.005% BSG, and 0.002% Tween20, prepared on the day of use. […] DMSO (1 ul) was added to Columns 11, 12, 23, 24, rows A-H for the maximum signal control and 1 ul of SAH, a known product and inhibitor of PRMT5/MEP50, was added to columns 11, 12, 23, 24, rows I-P for the minimum signal control. A cocktail (40 ul) containing the PRMT5/MEP50 enzyme and the peptide was added by Multidrop Combi (Thermo-Fisher). The compounds were allowed to incubate with PRMT5/MEP50 for 30 min at 25 degrees Celsius, then a cocktail (10 ul) containing ^3H-SAM was added to initiate the reaction (final volume=51 ul). […] The assays were stopped by the addition of non-radioactive SAM (10 ul) to a final concentration of 600 uM, which dilutes the ^3H-SAM to a level where its incorporation into the peptide substrate is no longer detectable. 50 ul of the reaction in the 384-well polypropylene plate was then transferred to a 384-well Flashplate and the biotinylated peptides were allowed to bind to the streptavidin surface for at least 1 hour before being washed three times with 0.1% Tween20 in a Biotek ELx405 plate washer. The plates were then read in a PerkinElmer TopCount plate reader to measure the quantity of ^3H-labeled peptide bound to the Flashplate surface, measured as disintegrations per minute (dpm) or alternatively, referred to as counts per minute (cpm).
Where dpm=disintegrations per minute, cmpd=signal in assay well, and min and max are the respective minimum and maximum signal controls.
Where top and bottom are the normally allowed to float, but may be fixed at 100 or 0 respectively in a 3-parameter fit. The Hill Coefficient normally allowed to float but may also be fixed at 1 in a 3-parameter fit. Y is the % inhibition and X is the compound concentration.

[1] = PRMT5 biochemical assay, read-out: Biochemical IC50

T1 sequence (O14744 with tags, fused parts or gaps): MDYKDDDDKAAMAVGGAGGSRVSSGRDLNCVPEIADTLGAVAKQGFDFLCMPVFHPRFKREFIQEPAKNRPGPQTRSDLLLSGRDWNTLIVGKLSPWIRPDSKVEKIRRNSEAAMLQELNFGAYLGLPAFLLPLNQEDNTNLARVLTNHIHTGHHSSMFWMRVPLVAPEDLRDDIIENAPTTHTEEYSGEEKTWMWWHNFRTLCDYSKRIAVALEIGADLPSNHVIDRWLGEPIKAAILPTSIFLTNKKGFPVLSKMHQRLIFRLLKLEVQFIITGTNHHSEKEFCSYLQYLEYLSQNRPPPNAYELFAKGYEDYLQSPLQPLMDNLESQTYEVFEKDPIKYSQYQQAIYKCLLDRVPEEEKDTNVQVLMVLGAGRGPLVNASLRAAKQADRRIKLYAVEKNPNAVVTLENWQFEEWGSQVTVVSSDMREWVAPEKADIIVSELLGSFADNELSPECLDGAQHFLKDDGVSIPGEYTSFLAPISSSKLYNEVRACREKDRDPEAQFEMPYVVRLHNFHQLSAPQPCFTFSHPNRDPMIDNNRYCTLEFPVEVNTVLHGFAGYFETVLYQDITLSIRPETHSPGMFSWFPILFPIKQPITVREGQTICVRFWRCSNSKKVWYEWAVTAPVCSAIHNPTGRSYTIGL
T1 sequence (Q9BQA1 with tags, fused parts or gaps partner limits assumed): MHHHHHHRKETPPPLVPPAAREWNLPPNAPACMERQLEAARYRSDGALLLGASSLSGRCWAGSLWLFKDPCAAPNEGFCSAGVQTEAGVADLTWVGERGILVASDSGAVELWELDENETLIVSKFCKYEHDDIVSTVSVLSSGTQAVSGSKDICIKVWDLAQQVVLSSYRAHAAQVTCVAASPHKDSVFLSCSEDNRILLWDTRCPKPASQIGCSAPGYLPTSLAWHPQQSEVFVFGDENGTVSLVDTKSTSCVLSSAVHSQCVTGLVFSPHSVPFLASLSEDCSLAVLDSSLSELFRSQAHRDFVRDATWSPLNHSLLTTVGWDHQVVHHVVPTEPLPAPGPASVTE

| Structure (SMILES) | pIC50 [1] | pIC50 |
| --- | --- | --- |
| CN(CCNCc1ccc(OC(F)F)cc1)C[C@H]1O[C@@H](n2cnc3c(N)ncnc32)[C@H](O)[C@@H]1O [Compound 1-1] | 6.00 to 7.00 | – |
| COc1cccc([C@H](C)NCCN(C)C[C@H]2O[C@@H](n3cnc4c(N)ncnc43)[C@H](O)[C@@H]2O)c1 [Compound 2-1] | 6.00 to 7.00 | – |
| NCc1nc(CCNC(=O)c2ccccc2)cn1Cc1ccccc1 [Compound 2-2, N-(2-(2-(aminomethyl)-1-benzyl-1H-imidazol-4-yl)ethyl)benzamide] | 6.00 to 7.00 | – |
| O=C(CC1NC(N2CCN(c3ccccc3)CC2)=NC1=O)c1ccccc1Cl (stereo not shown) [Compound 2-6] | 6.00 to 7.00 | – |
| CN1CCN(C2=NC(=O)C(CC(=O)Nc3ccc(Cl)cc3)N2)CC1 (stereo not shown) [Compound 2-14] | 5.00 to 6.00 | – |
| Cc1ccc(C(C)NCCN(C)C[C@H]2O[C@@H](n3cnc4c(N)ncnc43)[C@H](O)[C@@H]2O)cc1 (stereo partly shown) [Compound 3-1] | 6.00 to 7.00 | – |
| COc1ccccc1C(=O)CC1NC(N2CCN(c3ccccc3)CC2)=NC1=O (stereo not shown) [Compound 3-6] | 6.00 to 7.00 | – |
| Cc1cccc(CN(C)CCN(C)C[C@H]2O[C@@H](n3cnc4c(N)ncnc43)[C@H](O)[C@@H]2O)c1 [Compound 4-1] | 6.00 to 7.00 | – |
| O=C(CC1NC(N2CCN(c3ccccc3)CC2)=NC1=O)Nc1ccc(Br)cc1 (stereo not shown) [Compound 4-6] | 6.00 to 7.00 | – |
| Cc1ccc(NC(=O)CC2NC(N3CCN(C)CC3)=NC2=O)cc1 (stereo not shown) [Compound 4-14] | 4.30 to 5.00 | – |
| CC(NCCN(C)C[C@H]1O[C@@H](n2cnc3c(N)ncnc32)[C@H](O)[C@@H]1O)c1ccccc1 (stereo partly shown) [Compound 5-1] | 6.00 to 7.00 | – |
| COc1ccccc1C(=O)CC1NC(N2CCc3ccccc3C2)=NC1=O (stereo not shown) [Compound 5-6] | > 7.00 | – |
| Cc1cnc(CN)n1Cc1ccccc1 [Compound 5-13] | 5.00 to 6.00 | – |
| CCN1CCN(C2=NC(=O)C(CC(=O)Nc3ccc(C)cc3)N2)CC1 (stereo not shown) [Compound 5-14] | 5.00 to 6.00 | – |
| CN(CCN(C)C[C@H]1O[C@@H](n2cnc3c(N)ncnc32)[C@H](O)[C@@H]1O)Cc1ccccc1Cl [Compound 6-1] | 6.00 to 7.00 | – |
| COc1ccccc1C(=O)CC1NC(N2CC=C(c3ccccc3)CC2)=NC1=O (stereo not shown) [Compound 6-6] | 6.00 to 7.00 | – |

| Structure (SMILES) | pIC50 [1] | pIC50 |
| --- | --- | --- |
| O=C(CC1NC(N2CCN(Cc3ccccc3)CC2)=NC1=O)Nc1ccccc1 (stereo not shown) [Compound 6-14] | – | 4.30 to 5.00 |
| CN(CCNCc1ccc(Cl)cc1Cl)C[C@H]1O[C@@H](n2cnc3c(N)ncnc32)[C@H](O)[C@@H]1O [Compound 7-1] | 6.00 to 7.00 | – |
| NCc1ncc(CCNC(=O)c2ccccc2)n1Cc1ccccc1 [Compound 7-13] | 4.30 to 5.00 | – |
| COc1ccc(NC(=O)CC2NC(N3CCN(c4ccccn4)CC3)=NC2=O)cc1 (stereo not shown) [Compound 7-14] | 5.00 to 6.00 | – |
| CN(CCNCc1ccc(Cl)cc1)C[C@H]1O[C@@H](n2cnc3c(N)ncnc32)[C@H](O)[C@@H]1O [Compound 8-1] | 6.00 to 7.00 | – |
| Cc1cccc(NC(=O)CC2NC(N3CCN(c4ccccc4)CC3)=NC2=O)c1 (stereo not shown) [Compound 8-14] | 5.00 to 6.00 | – |
| CN(CCN(C)C[C@H]1O[C@@H](n2cnc3c(N)ncnc32)[C@H](O)[C@@H]1O)Cc1ccccc1 [Compound 9-1] | 6.00 to 7.00 | – |
| Cc1ccc(NC(=O)CC2NC(N3CCN(Cc4ccccc4)CC3)=NC2=O)cc1 (stereo not shown) [Compound 9-14] | 5.00 to 6.00 | – |
| CN(CCN(C)C[C@H]1O[C@@H](n2cnc3c(N)ncnc32)[C@H](O)[C@@H]1O)Cc1ccc(Cl)cc1 [Compound 10-1] | 6.00 to 7.00 | – |
| CC(=O)Nc1ccc(NC(=O)CC2NC(N3CCN(c4ccccc4)CC3)=NC2=O)cc1 (stereo not shown) [Compound 10-14] | 4.30 to 5.00 | – |
| COc1cc(CNCCN(C)C[C@H]2O[C@@H](n3cnc4c(N)ncnc43)[C@H](O)[C@@H]2O)cc(OC)c1 [Compound 11-1] | 6.00 to 7.00 | – |
| CCN1CCN(C2=NC(=O)C(CC(=O)Nc3ccc(OC)cc3)N2)CC1 (stereo not shown) [Compound 11-14] | 5.00 to 6.00 | – |
| CN(CCNCc1ccccc1)C[C@H]1O[C@@H](n2cnc3c(N)ncnc32)[C@H](O)[C@@H]1O [Compound 12-1] | 6.00 to 7.00 | – |
| CN(CCNCc1ccc(Cl)c(Cl)c1)C[C@H]1O[C@@H](n2cnc3c(N)ncnc32)[C@H](O)[C@@H]1O [Compound 13-1] | 6.00 to 7.00 | – |
| O=C(CC1NC(N2CCc3ccccc3C2)=NC1=O)Nc1ccccc1 (stereo not shown) [Compound 13-14] | 5.00 to 6.00 | – |

The next lines start with results.

| pIC50 [1] | Structure (SMILES) | pIC50 |
| --- | --- | --- |
| 6.00 to 7.00 | CN(CCNCc1ccco1)C[C@H]1O[C@@H](n2cnc3c(N)ncnc32)[C@H](O)[C@@H]1O [Compound 14-1] | – |
| 5.00 to 6.00 | CCN1CCN(C2=NC(=O)C(CC(=O)Nc3ccc(C(C)=O)cc3)N2)CC1 (stereo not shown) [Compound 14-14] | – |
| > 7.00 | CN(CCNCc1ccccc1F)C[C@H]1O[C@@H](n2cnc3c(N)ncnc32)[C@H](O)[C@@H]1O [Compound 15-1] | – |
| 5.00 to 6.00 | CCOc1ccc(NC(=O)CC2NC(N3CCN(c4ccccc4F)CC3)=NC2=O)cc1 (stereo not shown) [Compound 15-14] | – |
| > 7.00 | CN(CCNCc1ccc(F)cc1)C[C@H]1O[C@@H](n2cnc3c(N)ncnc32)[C@H](O)[C@@H]1O [Compound 16-1] | – |
| 5.00 to 6.00 | CC(C)c1ccc(NC(=O)CC2NC(N3CCN(c4ccccn4)CC3)=NC2=O)cc1 (stereo not shown) [Compound 16-14] | – |
| > 7.00 | CCN(CCN(C)C[C@H]1O[C@@H](n2cnc3c(N)ncnc32)[C@H](O)[C@@H]1O)Cc1ccncc1 [Compound 17-1] | – |
| 5.00 to 6.00 | CCOC(=O)c1ccc(NC(=O)CC2NC(N3CCN(c4ccccn4)CC3)=NC2=O)cc1 (stereo not shown) [Compound 17-14] | – |
| > 7.00 | CC(NCCN(C)C[C@H]1O[C@@H](n2cnc3c(N)ncnc32)[C@H](O)[C@@H]1O)c1ccc(Br)cc1 (stereo partly shown) [Compound 18-1] | – |
| 5.00 to 6.00 | O=C(CC1NC(N2CCN(c3ccccc3)CC2)=NC1=O)Nc1ccccc1 (stereo not shown) [Compound 18-14] | – |
| 6.00 to 7.00 | CN(CCNCc1ccc(Cl)cc1F)C[C@H]1O[C@@H](n2cnc3c(N)ncnc32)[C@H](O)[C@@H]1O [Compound 19-1] | – |
| 5.00 to 6.00 | CCc1ccc(NC(=O)CC2NC(N3CCN(CC)CC3)=NC2=O)cc1 (stereo not shown) [Compound 19-14] | – |
| 6.00 to 7.00 | COc1cccc(CN(C)CCN(C)C[C@H]2O[C@@H](n3cnc4c(N)ncnc43)[C@H](O)[C@@H]2O)c1 [Compound 20-1] | – |
| 5.00 to 6.00 | COc1ccc(N2CCN(C3=NC(=O)C(CC(=O)Nc4ccc(C(C)=O)cc4)N3)CC2)cc1 (stereo not shown) [Compound 21-14] | – |
| 6.00 to 7.00 | CC(N)CCN(C)C[C@H]1O[C@@H](n2cnc3c(N)ncnc32)[C@H](O)[C@@H]1O (stereo partly shown) [Compound 22-1] | – |
| > 7.00 | NCCCN(CC[C@H](N)C(=O)O)C[C@H]1O[C@@H](n2cnc3c(N)ncnc32)[C@H](O)[C@@H]1O [Compound 23-1] | – |
| 5.00 to 6.00 | Cc1ccc(NC(=O)CC2NC(N3CCc4ccccc4C3)=NC2=O)cc1 (stereo not shown) [Compound 23-14] | – |
| > 7.00 | NCCCCN(CC[C@H](N)C(=O)O)C[C@H]1O[C@@H](n2cnc3c(N)ncnc32)[C@H](O)[C@@H]1O [Compound 24-1] | – |
| 4.30 to 5.00 | CCOC(=O)c1ccc(NC(=O)CC2NC(N3CCN(C)CC3)=NC2=O)cc1 (stereo not shown) [Compound 24-14] | – |
| 6.00 to 7.00 | CC(C)N(CCCN)C[C@H]1O[C@@H](n2cnc3c(N)ncnc32)[C@H](O)[C@@H]1O [Compound 25-1] | – |
| 4.30 to 5.00 | COc1ccc(N2CCN(C3=NC(=O)C(CC(=O)Nc4ccccc4)N3)CC2)cc1 (stereo not shown) [Compound 25-14] | – |
| 6.00 to 7.00 | CC(C)N(CCN)C[C@H]1O[C@@H](n2cnc3c(N)ncnc32)[C@H](O)[C@@H]1O [Compound 26-1] | – |
| 4.30 to 5.00 | CC(=O)c1ccc(NC(=O)CC2NC(N3CCN(C)CC3)=NC2=O)cc1 (stereo not shown) [Compound 26-14] | – |
| 6.00 to 7.00 | CN(CCN)C[C@H]1O[C@@H](n2cnc3c(N)ncnc32)[C@H](O)[C@@H]1O [Compound 27-1] | – |
